Data set [1] is described as follows: Dark cytotoxicity against human HK1 cells assessed as cell viability at 1 to 8 uM after 24 hrs by MTT reduction assay. In kind it is cell-based. The settings on record: hk1, 24 h.
Data set [2] can be described thus: Photocytotoxicity against human HK1 cells assessed as cell viability at 4 uM measured 24 hrs post 12 J/cm'2 irradiation by MTT reduction assay. In kind it is functional. The note with it: HK-1, light or radiation study, read-out: Activity.
The nature of data set [3]: Cellular uptake in human HK1 cells assessed per 10^6 cells at 8 uM after 1 to 24 hrs by flow cytometry. In kind it is ADME, cell-based. The note with it: hk1, 8 µM.
Data set [4] can be described thus: Drug uptake in mitochondria of human HK1 cells at 8 uM after 24 hrs by confocal microscopy analysis. In kind it is ADME. The note with it: hk1, 24 h.
The nature of data set [5]: Drug uptake in lysosomes of human HK1 cells at 8 uM after 24 hrs by confocal microscopy analysis. It counts as ADME, cell-based, Lysosome. The settings on record: hk1, 24 h.
The nature of data set [6]: Photocytotoxicity against human HK1 cells assessed as cell viability at 8 uM measured 24 hrs post 4 J/cm'2 irradiation by MTT reduction assay. In kind it is functional. The settings on record: HK-1, light or radiation study, read-out: Activity.

Results on 3 molecules are retold here after ChEMBL document CHEMBL3616380, “Photocytotoxicity, cellular uptake and subcellular localization of amidinophenylporphyrins as potential photodynamic therapeutic agents: An in vitro cell study” (Bioorg Med Chem Lett, 2015).

Take `C[n+]1ccc(-c2c3nc(c(-c4cc[n+](C)cc4)c4ccc([nH]4)c(-c4cc[n+](C)cc4)c4ccc([nH]4)c(-c4cc[n+](C)cc4)c4nc2C=C4)C=C3)cc1` [TMPYP4]: the Activity entry in data set [1] is listed as “Non-toxic”. Moreover, the viability at 4 µM in data set [2] amounted to 58%. The Drug uptake entry in data set [3] and in data set [4] was “Active” each time.

For `N=C(N)c1ccc(-c2c3nc(c(-c4ccc(C(=N)N)cc4)c4ccc([nH]4)c(-c4ccc(C(=N)N)cc4)c4nc(c(-c5ccc(OCCCOc6ccc(-c7c8nc(c(-c9ccccc9)c9ccc([nH]9)c(-c9ccccc9)c9nc(c(-c%10ccccc%10)c%10ccc7[nH]%10)C=C9)C=C8)cc6)cc5)c5ccc2[nH]5)C=C4)C=C3)cc1`, in data set [1], the Activity result was “Non-toxic”. The viability at 4 µM in data set [2] came to 20%. Moreover, the Drug uptake result in data set [3] and in data set [5] was “Active” each time.

Turning to `N=C(N)c1ccc(-c2c3nc(c(-c4ccc(C(=N)N)cc4)c4ccc([nH]4)c(-c4ccc(C(=N)N)cc4)c4nc(c(-c5ccc(C(=N)N)cc5)c5ccc2[nH]5)C=C4)C=C3)cc1`, the Activity result in data set [1] is on record as “Non-toxic”. The viability at 8 µM in data set [6] turned out to be 50%. Further, the viability at 4 µM in data set [2] stood at 90%. Further, the Drug uptake result in data set [3] and in data set [5] was “Active” each time.
